Experiments:
Adenosine receptor A3 = molecular target: T1, Adenosine receptor A3 (Homo sapiens, UniProt P0DMS8); assay: Displacement of [3H]NECA from human adenosine A3 receptor expressed in CHO cells; format: cell-based
T1 sequence (P0DMS8 whole entry): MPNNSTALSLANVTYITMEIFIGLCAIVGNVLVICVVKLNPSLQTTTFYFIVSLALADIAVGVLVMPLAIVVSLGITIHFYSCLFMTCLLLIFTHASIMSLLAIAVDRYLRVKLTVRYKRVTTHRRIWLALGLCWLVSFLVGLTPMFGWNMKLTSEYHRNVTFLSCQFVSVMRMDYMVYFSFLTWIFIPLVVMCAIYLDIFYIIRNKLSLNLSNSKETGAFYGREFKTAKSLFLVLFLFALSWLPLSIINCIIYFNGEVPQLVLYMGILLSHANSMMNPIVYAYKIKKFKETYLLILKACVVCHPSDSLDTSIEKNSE

Adenosine receptor A2a = Adenosine receptor A2a (Homo sapiens, UniProt P29274); assay: biochemical
Chain of Adenosine receptor A2a (P29274 whole entry): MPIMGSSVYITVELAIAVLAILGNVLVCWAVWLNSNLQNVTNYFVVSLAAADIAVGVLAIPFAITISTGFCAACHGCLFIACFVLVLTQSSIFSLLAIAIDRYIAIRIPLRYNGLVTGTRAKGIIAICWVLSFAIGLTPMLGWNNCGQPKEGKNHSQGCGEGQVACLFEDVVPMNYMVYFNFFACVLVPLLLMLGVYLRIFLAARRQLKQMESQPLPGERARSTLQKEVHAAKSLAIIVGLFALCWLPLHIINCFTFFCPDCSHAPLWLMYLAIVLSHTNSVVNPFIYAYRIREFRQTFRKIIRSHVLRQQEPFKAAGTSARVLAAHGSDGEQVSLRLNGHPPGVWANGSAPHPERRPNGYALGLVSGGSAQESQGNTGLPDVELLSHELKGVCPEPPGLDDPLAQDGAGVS
Description: Displacement of [3H]NECA from human adenosine A2A receptor expressed in CHO cells

| SMILES | Ki (Adenosine receptor A3) [nM] | Ki (Adenosine receptor A2a) [nM] |
| --- | --- | --- |
| CCn1cc2c(nc(N)n3nc(-c4ccco4)nc23)n1 | 3760 |  |
| COc1ccc(CC(=O)Nc2nc3nn(C)c(SC)c3c3nc(-c4ccco4)nn23)cc1 | > 1000 |  |
| CC(C)(C)OC(=O)NCCCC(=O)Nc1nc2nn(CCc3ccccc3)cc2c2nc(-c3ccco3)nn12 |  | 288 |
| CC(C)CCn1cc2c(nc(NC(=O)CCCNC(=O)OC(C)(C)C)n3nc(-c4ccco4)nc23)n1 |  | 297 |
| CCOC(=O)COc1ccc(CCCn2ncc3c2nc(N)n2nc(-c4ccco4)nc32)cc1 | > 10000 | 0.43 |
| CC(C)CCn1cc2c(nc(NC(=O)Cc3cccs3)n3nc(-c4ccco4)nc23)n1 | 308 |  |
| CSc1c2c(nc(NC(=O)Cc3ccc(OCC(C)C)cc3)n3nc(-c4ccco4)nc23)nn1C | > 1000 | 50 |
| CCOC(=O)[C@H]1Oc2ccc(CCCn3ncc4c3nc(N)n3nc(-c5ccco5)nc43)cc2O1 | > 10000 | 5.48 |
| CCCCn1cc2c(nc(NC(=O)Cc3ccc4ccccc4c3)n3nc(-c4ccco4)nc23)n1 | 174 | 7.94 |
| Cn1cc2c(nc(NC(=O)COc3ccccc3)n3nc(-c4ccco4)nc23)n1 | 692 |  |
| CCn1cc2c(nc(NC(=O)C(c3ccccc3)c3ccccc3)n3nc(-c4ccco4)nc23)n1 | 0.98 | 131 |
| CC(C)CCn1cc2c(nc(NC(=O)COc3ccc(Cl)cc3)n3nc(-c4ccco4)nc23)n1 | 2310 | 16.1 |
| O=C(Nc1cccc(Cl)c1)Nc1nc2nn(CCc3c(Br)cc(Br)cc3Br)cc2c2nc(-c3ccco3)nn12 | 71 | 3600 |
| Nc1nc2c(cnn2CCCc2ccc3c(c2)O[C@@H](C(=O)O)O3)c2nc(-c3ccco3)nn12 | > 10000 | 59 |
| CC(C)CCn1cc2c(nc(NC(=O)Cc3ccsc3)n3nc(-c4ccco4)nc23)n1 | 540 | 3.88 |
| COc1ccc(NC(=O)Nc2nc3nn(Cc4cccc5ccccc45)cc3c3nc(-c4ccco4)nn23)cc1 | 16 | 3260 |
| COc1ccc(NC(=O)Nc2nc3nn(CCc4c(Br)cc(Br)cc4Br)cc3c3nc(-c4ccco4)nn23)cc1 | 25 | 2030 |
| COc1ccc(CC(=O)Nc2nc3nn(CCC(C)C)cc3c3nc(-c4ccco4)nn23)cc1 | 359 | 1.95 |
| COc1ccc(CC(=O)Nc2nc3nn(CCCc4ccccc4)cc3c3nc(-c4ccco4)nn23)cc1 | 120 |  |
| CCOC(=O)c1ccc(CCn2ncc3c2nc(N)n2nc(-c4ccco4)nc32)cc1 | > 10000 | 4 |
| C=Cn1cc2c(nc(NC(=O)Nc3ccc(OC)cc3)n3nc(-c4ccco4)nc23)n1 | 0.48 | 176 |
| Nc1nc2nn(CCc3c(Br)cc(Br)cc3Br)cc2c2nc(-c3ccco3)nn12 | 4480 | 348 |
| Nc1nc2c(cnn2CCCc2ccc3c(c2S(=O)(=O)O)OCO3)c2nc(-c3ccco3)nn12 | > 10000 | 75 |
| O=C(COc1ccc(Cl)cc1)Nc1nc2nn(CCc3ccccc3)cc2c2nc(-c3ccco3)nn12 | 3250 | 31.7 |

From ChEMBL document CHEMBL1154073, “Combining selectivity and affinity predictions using an integrated Support Vector Machine (SVM) approach: An alternative tool to discriminate between the human adenosine A(2A) and A(3) receptor pyrazolo-triazolo-pyrimidine antagonists binding sites” (Bioorg Med Chem, 2009)
